In patent publication US20170000749A1, “Methods for Treating Cognitive Disorders Using Inhibitors of Histone Deacetylase” (Forum Pharmaceuticals, Inc., priority 2008, published 2017):
Like-named read-outs stand apart in the source and are kept apart here.

How the values were obtained:
[1] = system: HDAC activity in primary mouse cortical cultures; test: Whole-Cell Histone Deacetylase (HDAC) Inhibition Assay in Primary Mouse Cortical Cultures; format: cell-based
Procedure, shortened: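 Primary neocortical neurons from E17 Balb/C mouse embryos were plated at 50000 cells/well and treated at DIV9 with ten-point DMSO dilutions for 16-18 h at 37° C, in triplicate. BOC-Lys(Ac)-AMC substrate was then added for 1 h. Fluor de Lys developer containing 1 uM TSA produced a fluorophore, which was read.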

[2] = target: one or more of HDAC-1, HDAC-2, HDAC-3, HDAC-4, HDAC-5, HDAC-6, HDAC-7, HDAC-8, HDAC-9, HDAC-10 and HDAC-11; test: Inhibition of Histone Deacetylase Enzymatic Activity (Boc-Lys(Ac)-AMC substrate, Fluor-de-Lys developer); format: biochemical; conditions: read-out: HDAC Inhibition (IC50 μM) HDAC Enzyme
Method: The following protocol is used to assay the compounds of the disclosure.
The mixture is pre-incubated for 5 minutes at room temperature. The reaction is started by bringing the temperature to 37° C. and adding 16 μl substrate. Total reaction volume is 50 μl.
In the Tables 8, 9 and 10, A≦0.05 μM; 0.05 μM<B≦0.1 μM; 0.1 μM<C≦1 μM; and 1 μM<D≦10 μM.

[3] = whole-cell (WC), mouse cortical neurons, Table 8, read-out: HDAC Inhibition (IC50 μM) WC mouse cortical neurons
[4] = read-out: HDAC Inhibition (IC50 μM) WC mouse cortical neurons, Table 10
[5] = whole-cell (WC), mouse cortical neurons, Table 10, read-out: HDAC Inhibition (IC50 μM) WC mouse cortical neurons
[6] = whole-cell (WC), mouse cortical neurons, Table 9, read-out: HDAC Inhibition (IC50 μM) WC mouse cortical neurons

Row | SMILES | IC50 [1, 3] [µM] | IC50 ([2]; Table 8) [µM] | further results
1 | O=C(NO)c1ccc(C2=Nc3ccc(C(F)(F)F)nc3Oc3ccccc32)cc1 [(Z)-N-hydroxy-4-(2-(trifluoromethyl)benzo[f]pyrido[2,3-b][1,4]oxazepin-6-yl)benzamide] | 5 to 15 | 0.05 to 0.1 | –
2 | COc1cccc2c1Oc1ccc(C(F)(F)F)cc1N=C2c1ccc(C(=O)NO)cc1 [(Z)-N-hydroxy-4-(4-methoxy-8-(trifluoromethyl)dibenzo[b,f][1,4]oxazepin-11-yl)benzamide] | 5 to 15 | 0.1 to 1 | –
3 | O=C(NO)c1ccc(C2=Nc3ccccc3N(CCN3CCOCC3)c3ncccc32)cc1 [(Z)-N-hydroxy-4-(11-(2-morpholinoethyl)-11H-benzo[b]pyrido[2,3-e][1,4]diazepin-5-yl)benzamide] | 1 to 5 | 0.05 to 0.1 | –
4 | O=C(NO)c1ccc(C2=Nc3ccccc3N(CCCN3CCOCC3)c3ncccc32)cc1 [(Z)-N-hydroxy-4-(11-(3-morpholinopropyl)-11H-benzo[b]pyrido[2,3-e][1,4]diazepin-5-yl)benzamide] | 1 to 5 | 0.1 to 1 | –
5 | CC(C)N1c2ccccc2N=C(c2ccc(C(=O)NO)cc2)c2cccnc21 [(Z)-N-hydroxy-4-(11-isopropyl-11H-benzo[b]pyrido[2,3-e][1,4]diazepin-5-yl)benzamide] | < 1 | < 0.05 | –
6 | O=C(CCCCCN1C(=O)CN=C(c2ccccc2)c2ccccc21)NO [(Z)-N-hydroxy-6-(2-oxo-5-phenyl-2,3-dihydro-1H-benzo[e][1,4]diazepin-1-yl)hexanamide] | – | – | IC50 [1, 4]: 1 to 5 µM; IC50 ([2]; Table 10): 0.1 to 1 µM
7 | O=C(CCCCCCCN1C(=O)CN=C(c2ccccc2)c2ccccc21)NO [(Z)-N-hydroxy-8-(2-oxo-5-phenyl-2,3-dihydro-1H-benzo[e][1,4]diazepin-1-yl)octanamide] | – | – | IC50 [1, 4]: 1 to 5 µM; IC50 ([2]; Table 10): 0.1 to 1 µM
8 | COc1cccc2c1C(c1ccc(C(=O)NO)cc1)=Nc1ccccc1O2 [(Z)—N-hydroxy-4-(1-methoxydibenzo[b,f][1,4]oxazepin-11-yl)benzamide] | > 15 | 0.1 to 1 | –
9 | COc1ccc2c(c1)C(c1ccc(C(=O)NO)cc1)=Nc1ccccc1O2 [(Z)—N-hydroxy-4-(2-methoxydibenzo[b,f][1,4]oxazepin-11-yl)benzamide] | 5 to 15 | 0.1 to 1 | –
10 | O=C(NO)c1ccc(C2=Nc3ccccc3Oc3cc(C(F)(F)F)ccc32)cc1 [(Z)—N-hydroxy-4-(3-(trifluoromethyl)dibenzo[b,f][1,4]oxazepin-11-yl)benzamide] | > 15 | 0.05 to 0.1 | –
11 | COc1ccc2c(c1)Oc1ccccc1N=C2c1ccc(C(=O)NO)cc1 [(Z)—N-hydroxy-4-(3-methoxydibenzo[b,f][1,4]oxazepin-11-yl)benzamide] | 1 to 5 | 0.1 to 1 | –
12 | Cc1ccc2c(c1)Oc1ccccc1N=C2c1ccc(C(=O)NO)cc1 [(Z)—N-hydroxy-4-(3-methyldibenzo[b,f][1,4]oxazepin-11-yl)benzamide] | 1 to 5 | < 0.05 | –
13 | O=C(NO)c1ccc(C2=Nc3ccccc3Oc3cc(N4CCOCC4)ccc32)cc1 [(Z)—N-hydroxy-4-(3-morpholinodibenzo[b,f][1,4]oxazepin-11-yl)benzamide] | 5 to 15 | 0.1 to 1 | –
14 | COCCOc1cccc2c1Oc1ccccc1N=C2c1ccc(C(=O)NO)cc1 [(Z)—N-hydroxy-4-(4-(2-methoxyethoxy)dibenzo[b,f][1,4]oxazepin-11-yl)benzamide] | 1 to 5 | < 0.05 | –
15 | O=C(NO)c1ccc(C2=Nc3ccccc3Oc3c(OCCN4CCOCC4)cccc32)cc1 [(Z)—N-hydroxy-4-(4-(2-morpholinoethoxy)dibenzo[b,f][1,4]oxazepin-11-yl)benzamide] | < 1 | < 0.05 | –
16 | C[S+]([O-])c1cccc2c1Oc1ccccc1N=C2c1ccc(C(=O)NO)cc1 (centres unmarked) [(Z)—N-hydroxy-4-(4-(methylsulfinyl)dibenzo[b,f][1,4]oxazepin-11-yl)benzamide] | 1 to 5 | 0.05 to 0.1 | –
17 | CS(=O)(=O)c1cccc2c1Oc1ccccc1N=C2c1ccc(C(=O)NO)cc1 [(Z)—N-hydroxy-4-(4-(methylsulfonyl)dibenzo[b,f][1,4]oxazepin-11-yl)benzamide] | 1 to 5 | < 0.05 | –
18 | CSc1cccc2c1Oc1ccccc1N=C2c1ccc(C(=O)NO)cc1 [(Z)—N-hydroxy-4-(4-(methylthio)dibenzo[b,f][1,4]oxazepin-11-yl)benzamide] | 1 to 5 | < 0.05 | –
19 | O=C(NO)c1ccc(C2=Nc3ccccc3Oc3c(OC(F)(F)F)cccc32)cc1 [(Z)—N-hydroxy-4-(4-(trifluoromethoxy)dibenzo[b,f][1,4]oxazepin-11-yl)benzamide] | > 15 | 0.1 to 1 | –

Row | SMILES | IC50 [1, 3] [µM] | IC50 ([2]; Table 8) [µM] | further results
20 | O=C(NO)c1ccc(C2=Nc3ccccc3Oc3c2cccc3C(F)(F)F)cc1 [(Z)—N-hydroxy-4-(4-(trifluoromethyl)dibenzo[b,f][1,4]oxazepin-11-yl)benzamide] | > 15 | < 0.05 | –
21 | O=C(NO)c1ccc(C2=Nc3ccccc3Oc3c(O)cccc32)cc1 [(Z)—N-hydroxy-4-(4-hydroxydibenzo[b,f][1,4]oxazepin-11-yl)benzamide] | < 1 | 0.05 to 0.1 | –
22 | COc1cccc2c1Oc1ccccc1N=C2c1ccc(C(=O)NO)cc1 [(Z)—N-hydroxy-4-(4-methoxydibenzo[b,f][1,4]oxazepin-11-yl)benzamide] | 1 to 5 | 0.05 to 0.1 | –
23 | Cc1cccc2c1Oc1ccccc1N=C2c1ccc(C(=O)NO)cc1 [(Z)—N-hydroxy-4-(4-methyldibenzo[b,f][1,4]oxazepin-11-yl)benzamide] | 1 to 5 | 0.05 to 0.1 | –
24 | CCCc1cccc2c1Oc1ccccc1N=C2c1ccc(C(=O)NO)cc1 [(Z)—N-hydroxy-4-(4-propyldibenzo[b,f][1,4]oxazepin-11-yl)benzamide] | > 15 | 0.1 to 1 | –
25 | COCCN1c2ccccc2N=C(c2ccc(C(=O)NO)cc2)c2ccccc21 [(Z)—N-hydroxy-4-(5-(2-methoxyethyl)-5H-dibenzo[b,e][1,4]diazepin-11-yl)benzamide] | 1 to 5 | 0.1 to 1 | –
26 | CC(C)N1c2ccccc2N=C(c2ccc(C(=O)NO)cc2)c2ccccc21 [(Z)—N-hydroxy-4-(5-isopropyl-5H-dibenzo[b,e][1,4]diazepin-11-yl)benzamide] | < 1 | < 0.05 | –
27 | Cc1cccc2c1Oc1ccccc1C(c1ccc(C(=O)NO)cc1)=N2 [(Z)—N-hydroxy-4-(6-methyldibenzo[b,f][1,4]oxazepin-11-yl)benzamide] | 5 to 15 | 0.1 to 1 | –
28 | O=C(NO)c1ccc(C2=Nc3ccc(C(F)(F)F)cc3Oc3ccccc32)cc1 [(Z)—N-hydroxy-4-(7-(trifluoromethyl)dibenzo[b,f][1,4]oxazepin-11-yl)benzamide] | > 15 | 0.1 to 1 | –
29 | O=C(NO)c1ccc(C2=Nc3cc(C(F)(F)F)ccc3Oc3ccccc32)cc1 [(Z)—N-hydroxy-4-(8-(trifluoromethyl)dibenzo[b,f][1,4]oxazepin-11-yl)benzamide] | 5 to 15 | 0.1 to 1 | –
30 | Cc1ccc2c(c1)N=C(c1ccc(C(=O)NO)cc1)c1ccccc1O2 [(Z)—N-hydroxy-4-(8-methyldibenzo[b,f][1,4]oxazepin-11-yl)benzamide] | 1 to 5 | 0.05 to 0.1 | –
31 | O=C(NO)c1cnc(N2CCn3c(nnc3C(F)(F)F)C2)nc1 [N-hydroxy-2-(3-(trifluoromethyl)-5,6-dihydro-[1,2,4]triazolo[4,3-a]pyrazin-7(8H)-yl)pyrimidine-5-carboxamide] | – | – | IC50 [1, 5]: 1 to 5 µM; IC50 ([2]; Table 10): 0.05 to 0.1 µM
32 | O=C(NO)c1cnc(N2CCn3c(nnc3-c3ccccc3)C2)nc1 [N-hydroxy-2-(3-phenyl-5,6-dihydro-[1,2,4]triazolo[4,3-a]pyrazin-7(8H)-yl)pyrimidine-5-carboxamide] | – | – | IC50 [1, 5]: 1 to 5 µM; IC50 ([2]; Table 10): < 0.05 µM
33 | O=C(Cc1ccc(CN2C(=O)c3ccccc3Oc3ccccc32)cc1)NO [N-hydroxy-2-(4-((11-oxodibenzo[b,f][1,4]oxazepin-10(11H)-yl)methyl)phenyl)acetamide] | – | – | IC50 [1, 5]: 1 to 5 µM; IC50 ([2]; Table 10): 0.1 to 1 µM
34 | O=C(NO)c1cnc(N2CC3CC(CN(c4cc(C(F)(F)F)ccn4)C3)C2)nc1 [N-hydroxy-2-(7-(4-(trifluoromethyl)pyridin-2-yl)-3,7-diazabicyclo[3.3.1]nonan-3-yl)pyrimidine-5-carboxamide] | – | – | IC50 [1, 6]: > 15 µM; IC50 ([2]; Table 9): 0.1 to 1 µM
35 | O=C(NO)c1cnc(N2C[C@H]3C[C@@H]2CN3c2cc(C(F)(F)F)ccn2)nc1 [N-hydroxy-2-((1R,4R)-5-(4-(trifluoromethyl)pyridin-2-yl)-2,5-diazabicyclo[2.2.1]heptan-2-yl)pyrimidine-5-carboxamide] | – | – | IC50 [1, 6]: < 1 µM; IC50 ([2]; Table 9): < 0.05 µM
36 | Cc1cccc(N2C[C@H]3C[C@@H]2CN3c2ncc(C(=O)NO)cn2)c1 [N-hydroxy-2-((1R,4R)-5-m-tolyl-2,5-diazabicyclo[2.2.1]heptan-2-yl)pyrimidine-5-carboxamide] | – | – | IC50 [1, 6]: < 1 µM; IC50 ([2]; Table 9): 0.05 to 0.1 µM
37 | Cc1ccc(N2C[C@H]3C[C@@H]2CN3c2ncc(C(=O)NO)cn2)cc1 [N-hydroxy-2-((1R,4R)-5-p-tolyl-2,5-diazabicyclo[2.2.1]heptan-2-yl)pyrimidine-5-carboxamide] | – | – | IC50 [1, 6]: < 1 µM; IC50 ([2]; Table 9): < 0.05 µM
